# In ChEMBL document CHEMBL1127756 (Bioorg Med Chem Lett, 1994):
# Numbered stars: 1 amine (or outer) side, 2 acyl side, 3 side chain; on linkers, the order of the positions; unused ones are H or OH. Square brackets hold non-standard residues; d marks the D form. Peptide text beside a SMILES is read from it. X1 = C/C=C/CC[C@H](N[*:1])C(=O)[*:2]; pGlu = O=C1CC[C@@H](C(=O)O)N1; Ahp(2) = CCCCC[C@H](N)C(=O)O
# Tests used:
# [1] = target: T1, Gastrin/cholecystokinin type B receptor (Mus musculus, UniProt P56481); test: Concentration producing half-maximal inhibition of specific binding of [125I]Bolton-Hunter CCK-8 to Cholecystokinin type B receptor in the mouse cerebral cortex; type: tissue-based
# T1 sequence (P56481 whole entry): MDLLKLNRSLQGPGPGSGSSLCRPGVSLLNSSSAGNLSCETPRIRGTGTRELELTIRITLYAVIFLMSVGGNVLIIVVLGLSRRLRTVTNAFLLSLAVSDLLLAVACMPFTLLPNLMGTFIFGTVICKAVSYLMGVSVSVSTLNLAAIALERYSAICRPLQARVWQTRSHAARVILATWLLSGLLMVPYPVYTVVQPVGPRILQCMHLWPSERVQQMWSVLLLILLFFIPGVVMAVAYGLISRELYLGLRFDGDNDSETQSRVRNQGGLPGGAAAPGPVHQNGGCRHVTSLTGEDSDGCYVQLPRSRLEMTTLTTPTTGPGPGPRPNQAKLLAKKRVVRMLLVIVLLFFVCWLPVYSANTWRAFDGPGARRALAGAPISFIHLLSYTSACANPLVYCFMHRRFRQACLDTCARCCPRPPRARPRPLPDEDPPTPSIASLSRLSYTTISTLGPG
# [2] = target: T2, Cholecystokinin receptor type A (Rattus norvegicus, UniProt P30551); test: Concentration producing half-maximal inhibition of specific binding of [125I]Bolton-Hunter CCK-8 to Cholecystokinin type A receptor in the rat pancreas
# T2 sequence (P30551 whole entry): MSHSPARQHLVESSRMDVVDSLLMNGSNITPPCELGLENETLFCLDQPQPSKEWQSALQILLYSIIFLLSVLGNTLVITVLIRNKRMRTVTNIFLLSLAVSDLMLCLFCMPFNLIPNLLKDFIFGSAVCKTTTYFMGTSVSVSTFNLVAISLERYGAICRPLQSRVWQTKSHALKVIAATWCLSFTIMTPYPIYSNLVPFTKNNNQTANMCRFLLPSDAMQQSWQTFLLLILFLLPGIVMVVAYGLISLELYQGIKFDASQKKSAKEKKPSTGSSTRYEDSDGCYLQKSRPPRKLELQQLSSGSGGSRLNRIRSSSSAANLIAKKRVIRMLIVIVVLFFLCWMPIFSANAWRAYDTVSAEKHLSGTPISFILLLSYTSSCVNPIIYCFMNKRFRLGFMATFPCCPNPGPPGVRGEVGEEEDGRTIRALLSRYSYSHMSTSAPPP
# Neuromedin-K receptor = target: T3, Neuromedin-K receptor (Cavia porcellus, UniProt P30098); test: (§1) Concentration producing half-maximal inhibition of specific binding of [3H]senktide to Tachykinin receptor 3 in the guinea pig cerebral cortex; type: tissue-based
# T3 sequence (P30098 whole entry): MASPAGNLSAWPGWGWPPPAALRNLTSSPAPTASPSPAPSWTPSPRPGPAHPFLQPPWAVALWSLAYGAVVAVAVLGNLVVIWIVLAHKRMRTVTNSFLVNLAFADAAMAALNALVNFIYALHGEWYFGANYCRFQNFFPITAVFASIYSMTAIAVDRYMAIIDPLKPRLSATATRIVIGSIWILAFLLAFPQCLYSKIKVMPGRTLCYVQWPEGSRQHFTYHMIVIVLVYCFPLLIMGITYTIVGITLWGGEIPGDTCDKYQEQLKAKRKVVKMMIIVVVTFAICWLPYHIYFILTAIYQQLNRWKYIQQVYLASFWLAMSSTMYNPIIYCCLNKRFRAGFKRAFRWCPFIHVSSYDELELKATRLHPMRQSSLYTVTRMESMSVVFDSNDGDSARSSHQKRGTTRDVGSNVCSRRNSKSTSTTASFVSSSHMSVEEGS
# Substance-P receptor = Substance-P receptor (Cavia porcellus, UniProt P30547); test: Concentration producing half-maximal inhibition of specific binding of. [125I]Bolton-Hunter Substance P to NK-1 receptors in the guinea pig cerebral cortex; type: tissue-based
# Substance-K receptor = target: T4, Substance-K receptor (Mesocricetus auratus, UniProt P51144); test: (§2) Concentration producing half-maximal inhibition of specific binding of. [125I]neurokinin A to NK-2 receptors in the hamster urinary bladder; type: single protein
# T4 sequence (P51144 whole entry): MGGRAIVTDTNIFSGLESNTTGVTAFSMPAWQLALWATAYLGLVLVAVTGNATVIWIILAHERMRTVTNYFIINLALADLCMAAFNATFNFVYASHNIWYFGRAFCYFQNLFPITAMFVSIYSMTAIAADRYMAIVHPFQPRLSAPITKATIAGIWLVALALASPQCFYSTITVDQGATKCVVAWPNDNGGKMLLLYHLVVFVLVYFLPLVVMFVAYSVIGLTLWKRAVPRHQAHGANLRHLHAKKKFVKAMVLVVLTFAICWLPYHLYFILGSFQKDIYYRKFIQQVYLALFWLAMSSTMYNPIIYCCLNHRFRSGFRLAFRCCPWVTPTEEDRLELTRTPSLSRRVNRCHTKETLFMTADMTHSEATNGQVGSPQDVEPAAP
# [3] = target: T5, Neuromedin-K receptor (Cavia porcellus) (UniProt P30098); test: as §1; type: tissue-based
# T5 sequence (whole entry): T3 sequence (P30098 whole entry)
# [4] = target: T6, Substance-K receptor (Mesocricetus auratus) (UniProt P51144); test: as §2; conditions: Cricetulus griseus
# T6 sequence (whole entry): T4 sequence (P51144 whole entry)
# Sequence of Substance-P receptor (P30547 whole entry): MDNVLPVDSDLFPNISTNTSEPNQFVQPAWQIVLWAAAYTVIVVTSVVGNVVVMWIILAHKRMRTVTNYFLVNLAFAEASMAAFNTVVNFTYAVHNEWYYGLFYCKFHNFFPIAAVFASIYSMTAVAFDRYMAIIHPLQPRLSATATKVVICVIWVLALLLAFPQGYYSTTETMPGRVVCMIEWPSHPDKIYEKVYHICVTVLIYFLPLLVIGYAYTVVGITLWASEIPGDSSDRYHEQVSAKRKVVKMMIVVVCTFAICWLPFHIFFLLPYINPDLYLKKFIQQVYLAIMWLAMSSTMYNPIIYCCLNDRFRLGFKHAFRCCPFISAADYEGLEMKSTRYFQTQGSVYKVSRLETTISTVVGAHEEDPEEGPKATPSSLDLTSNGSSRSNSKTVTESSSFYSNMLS
IC50 [2] [nM],IC50 (Neuromedin-K receptor) [nM],IC50 (Substance-P receptor) [nM],IC50 (Substance-K receptor) [nM],further results,Compound
8160,,,,IC50 [1]: 4.9 nM,C/C=C/CC[C@H](NC(=O)[C@@H](N)Cc1c[nH]c2ccccc12)C(=O)N[C@@H](CC(=O)O)C(=O)N[C@@H](Cc1ccccc1)C(N)=O
,533,44.7,637,,CCCCC[C@H](NC(=O)[C@H](CC(C)C)NC(=O)CNC(=O)[C@H](Cc1ccccc1)NC(=O)[C@H](Cc1ccccc1)NC(=O)[C@H](CCC(N)=O)NC(=O)[C@H](CCC(N)=O)NC(C)=O)C(N)=O (Ac-QQFFGL[Ahp(2)]-NH2)
,882,115,1370,,C/C=C/CC[C@H](NC(=O)[C@H](CC(C)C)NC(=O)CNC(=O)[C@H](Cc1ccccc1)NC(=O)[C@H](Cc1ccccc1)NC(=O)[C@H](CCC(N)=O)NC(=O)[C@H](CCC(N)=O)NC(C)=O)C(N)=O (Ac-QQFFGL[X1]-NH2)
8490,,,,IC50 [1]: 2.83 nM,CCCCC[C@H](NC(=O)[C@@H](N)Cc1c[nH]c2ccccc12)C(=O)N[C@@H](CC(=O)O)C(=O)N[C@@H](Cc1ccccc1)C(N)=O (H-W[Ahp(2)]DF-NH2)
,,25.4,,,CSCC[C@H](NC(=O)[C@H](CC(C)C)NC(=O)CNC(=O)[C@H](Cc1ccccc1)NC(=O)[C@H](Cc1ccccc1)NC(=O)[C@H](CCC(N)=O)NC(=O)[C@@H]1CCC(=O)N1)C(N)=O ([pGlu]QFFGLM-NH2)
,,97,,inhibition [3]: 25%; inhibition [4]: 47%,CCCCC[C@H](NC(=O)[C@H](CC(C)C)NC(=O)CNC(=O)[C@H](Cc1ccccc1)NC(=O)[C@H](Cc1ccccc1)NC(=O)[C@H](CCC(N)=O)NC(=O)[C@@H]1CCC(=O)N1)C(N)=O ([pGlu]QFFGL[Ahp(2)]-NH2)
,1880,366,2900,,C/C=C/CC[C@H](NC(=O)[C@H](CC(C)C)NC(=O)CNC(=O)[C@H](Cc1ccccc1)NC(=O)[C@H](Cc1ccccc1)NC(=O)[C@H](CCC(N)=O)NC(=O)[C@@H]1CCC(=O)N1)C(N)=O ([pGlu]QFFGL[X1]-NH2)
4250,,,,,CSCC[C@H](NC(=O)[C@@H](N)Cc1c[nH]c2ccccc12)C(=O)N[C@@H](CC(=O)O)C(=O)N[C@@H](Cc1ccccc1)C(N)=O [TETRAGASTRIN]
,276,29.5,1620,,Ac-QQFFGLM-NH2
,1130,49.6,3290,,H-QQFFGLM-NH2
